# According to ChEMBL document CHEMBL4118071, “Discovery of unsymmetrical aromatic disulfides as novel inhibitors of SARS-CoV main protease: Chemical synthesis, biological evaluation, molecular docking and 3D-QSAR study” (Eur J Med Chem, 2017):
# Activity calls are given as the source filed them. The rule behind the calls is not given here.
# Columns and labels:
# [1] = system: Severe acute respiratory syndrome-related coronavirus
# [2] = system: Severe acute respiratory syndrome-related coronavirus; details: 2 to 4 uM
# [3] = Inhibition of SARS coronavirus Mpro using MCA-AVLQSGFR-Lys(Dnp)-Lys-NH as substrate by fluorescence assay; design: species or system Severe acute respiratory syndrome-related coronavirus
smiles,measurement,setting,value
Clc1ccc(SSc2nnco2)cc1,alphaKi,[1],0.2 µM
Brc1ccc(SSc2ncccn2)cc1,inhibition,[2],Active
CCOC(=O)/C=C/[C@H](C[C@@H]1CCNC1=O)NC(=O)[C@H](CCC(C)C)NC(=O)[C@@H](NC(=O)[C@@H](NC(=O)c1ccco1)C(C)C)C(C)C,Ki,[3],6.7 µM
